Measurements reported in patent publication US8067590B2, “Pyridone derivates with MCH antagonistic activity and medicaments comprising these compounds” (Boehringer Ingelheim International GmbH, priority 2006, dated 2011).

Target: T1, MCH-1R (Rattus norvegicus, UniProt P97639)
Assay: not given
Set-up: host or cells: rats (in vivo)
Conditions: rats; cited from earlier work

T1 sequence (P97639 whole entry): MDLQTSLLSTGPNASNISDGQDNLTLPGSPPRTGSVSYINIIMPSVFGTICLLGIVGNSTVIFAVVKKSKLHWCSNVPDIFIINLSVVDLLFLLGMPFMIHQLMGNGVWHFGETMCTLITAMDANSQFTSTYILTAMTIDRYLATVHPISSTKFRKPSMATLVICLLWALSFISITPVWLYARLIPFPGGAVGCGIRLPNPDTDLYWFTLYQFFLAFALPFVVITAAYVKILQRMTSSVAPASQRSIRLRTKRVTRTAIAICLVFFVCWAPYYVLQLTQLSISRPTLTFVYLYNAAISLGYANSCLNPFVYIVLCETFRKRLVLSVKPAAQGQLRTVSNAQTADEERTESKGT

For COCC1=C(C(=O)OC)[C@H](c2ccc(F)c(F)c2)N(C(=O)NCCCN2CCC(c3cccc(NC(C)=O)c3)CC2)C(=O)N1 [SNAP-7941], the “effects in behavioural experiments” value is given as “anxiolytic and antidepressant effects”.

Target: T2, hMCH-1R (Homo sapiens, UniProt Q99705)
T2 construct: expressed in transfected cells; host or cells: CHO/Galpha16 cells (membranes)
T2 sequence (Q99705 whole entry): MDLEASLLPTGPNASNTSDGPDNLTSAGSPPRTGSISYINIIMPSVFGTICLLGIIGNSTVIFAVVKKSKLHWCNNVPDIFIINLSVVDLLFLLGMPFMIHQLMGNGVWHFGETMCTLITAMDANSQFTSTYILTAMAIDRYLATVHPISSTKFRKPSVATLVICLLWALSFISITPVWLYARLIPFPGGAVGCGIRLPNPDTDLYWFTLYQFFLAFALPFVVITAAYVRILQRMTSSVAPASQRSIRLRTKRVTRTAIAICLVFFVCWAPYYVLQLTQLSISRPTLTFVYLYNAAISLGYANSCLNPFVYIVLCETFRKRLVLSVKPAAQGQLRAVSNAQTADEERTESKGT
Assay: MCH-1 receptor binding test (125I-MCH binding to membranes of hMCH-1R transfected CHO/Galpha16 cells)
Conditions: not given
Method: Membranes from CHO/Galpha16 cells stably transfected with human hMCH-1R are resuspended using a syringe (needle 0.6×25 mm) and diluted in test buffer (50 mM HEPES, 10 mM MgCl2, 2 mM EGTA, pH 7.00; 0.1% bovine serum albumin (protease-free), 0.021% bacitracin, 1 μg/ml aprotinin, 1 μg/ml leupeptin and 1 μM phosphoramidone) to a concentration of 5 to 15 μg/ml.
After the incubation the reaction is filtered using a cell harvester through 0.5% PEI treated fibreglass filters (GF/B, Unifilter Packard). The membranebound radioactivity retained on the filter is then determined after the addition of scintillator substance (Packard Microscint 20) in a measuring device (TopCount of Packard). The non-specific binding is defined as bound radioactivity in the presence of 1 micromolar MCH during the incubation period.
The analysis of the concentration binding curve is carried out on the assumption of one receptor binding site.

In order of rising IC50:
1. O=c1cc(OCc2ccccc2)cnn1CCc1ccc(CN2CCCC2)cc1 [Example 21.2]  3 nM
2. O=C(Cn1ncc(OCc2ccccc2)cc1=O)c1ccc(CNCC2CC2)cc1 [Example 32.8]  6 nM
3. O=c1cc(OCc2ccccc2)ccn1CCc1ccc2c(c1)CCNCC2 [Example 23.2, 4-Benzyloxy-1-[2-(2,3,4,5-tetrahydro-1H-3-benzazepin-7-yl)-ethyl]-1H-pyridin-2-one]  7 nM
4. CC(=O)NC1CCN(Cc2ccc(CCn3ccc(OCc4ccsc4)cc3=O)cc2)CC1 [Example 4.2, N-[1-(4-{2-[2-Oxo-4-(thiophen-3-ylmethoxy)-2H-pyridin-1-yl]-ethyl}-benzyl)-piperidin-4-yl]-acetamide]  8 nM
5. O=c1cc(OCc2ccccc2)ccn1CCc1ccc2c(c1)CCNC2 [Example 27.2, 4-Benzyloxy-1-[2-(1,2,3,4-tetrahydro-isoquinolin-6-yl)-ethyl]-1H-pyridin-2-one]  8 nM
6. CC1(O)CCN(Cc2ccc(C(=O)Cn3ncc(OCc4ccccc4)cc3=O)cc2)CC1 [Example 32.3]  9 nM
7. O=C(Cn1ncc(OCc2ccccc2)cc1=O)c1ccc(CN2CCC(O)CC2)cc1 [Example 32.2]  12 nM
8. O=c1cc(OCc2ccco2)ccn1CCc1ccc(CN2CCCC2)cc1 [Example 6.1, 4-(Furan-2-ylmethoxy)-1-[2-(4-pyrrolidin-1-ylmethyl-phenyl)-ethyl]-1H-pyridin-2-one]  13 nM
9. O=C(Cn1ccc(OCc2ccccc2)cc1=O)c1ccc(CN2CC[C@@H](O)C2)cc1 [Example 29.11]  14 nM
10. CN1CCc2ccc(C(=O)Cn3ncc(OCc4ccccc4)cc3=O)cc2C1 [Example 42.1, 5-Benzyloxy-2-[2-(2-methyl-1,2,3,4-tetrahydro-isoquinolin-7-yl)-2-oxo-ethyl]-2H-pyridazin-3-one]  14 nM
11. O=C(Cn1ccc(OCc2ccccc2)cc1=O)c1ccc(CN2CCC(O)CC2)cc1 [Example 29.3, 4-Benzyloxy-1-{2-[4-(4-hydroxy-piperidin-1-ylmethyl)-phenyl]-2-oxo-ethyl}-1H-pyridin-2-one]  16 nM
12. CC1(O)CCN(Cc2ccc(C(=O)Cn3ccc(OCc4ccccc4)cc3=O)cc2)CC1 [Example 29.4]  16 nM
13. O=C(Cn1cnc(OCc2ccccc2)cc1=O)c1ccc(CN2CCCCC2)cc1 [Example 34.3]  16 nM
14. O=C(Cn1ncc(OCc2ccccc2)cc1=O)c1ccc2c(c1)CNCC2 [Example 41.1, 5-Benzyloxy-2-[2-oxo-2-(1,2,3,4-tetrahydro-isoquinolin-7-yl)-ethyl]-2H-pyridazin-3-one]  17 nM
15. O=C(Cn1ccc(OCc2ccccc2)cc1=O)c1ccc(CN2CC(O)C2)cc1 [Example 29.13]  18 nM
16. O=C(Cn1ncc(OCc2ccc(Cl)cn2)cc1=O)c1ccc(CN2CCCC2)cc1 [Example 33.8]  19 nM
17. CN1CCc2sc(C(=O)Cn3ncc(OCc4ccccc4)cc3=O)cc2C1 [Example 44.2, 5-Benzyloxy-2-[2-(5-methyl-4,5,6,7-tetrahydro-thieno[3,2-c]pyridin-2-yl)-2-oxo-ethyl]-2H-pyridazin-3-one]  20 nM
18. CN1CCc2cc(C(=O)Cn3ccc(OCc4ccccc4)cc3=O)ccc2C1 [Example 46.2, 4-Benzyloxy-1-[2-(2-methyl-1,2,3,4-tetrahydro-isoquinolin-6-yl)-2-oxo-ethyl]-1H-pyridin-2-one]  21 nM
19. CN1CCN(Cc2ccc(C(=O)Cn3ncc(OCc4ccccc4)cc3=O)cc2)CC1 [Example 32.10]  23 nM
20. O=c1cc(OCc2ccccc2)ccn1CCc1ccc(CN2CCCC2)s1 [Example 28.1, 4-Benzyloxy-1-[2-(5-pyrrolidin-1-ylmethyl-thiophen-2-yl)-ethyl]-1H-pyridin-2-one]  26 nM
21. CC(c1ccc(C(=O)Cn2ncc(OCc3ccccc3)cc2=O)cc1)N1CCN(C)CC1 (centres unmarked) [Example 47.5]  27 nM
22. CN1Cc2ccc(C(=O)Cn3ccc(OCc4ccccc4)cc3=O)cc2C1 [Example 37.2, 4-Benzyloxy-1-[2-(2-methyl-2,3-dihydro-1H-isoindol-5-yl)-2-oxo-ethyl]-1H-pyridin-2-one]  33 nM
23. O=c1cc(OCc2ccc(Br)cn2)ccn1CC(O)c1ccc2c(c1)CNCC2 (centres unmarked) [Example 39.1, 4-(5-Bromo-pyridin-2-ylmethoxy)-1-[2-hydroxy-2-(1,2,3,4-tetrahydro-isoquinolin-7-yl)-ethyl]-1H-pyridin-2-one]  34 nM
24. O=C(Cn1ccc(OCc2ccccc2)cc1=O)c1ccc2c(c1)CCN(C(=O)C(F)(F)F)CC2 [Example 22.1, 4-Benzyloxy-1-{2-oxo-2-[3-(2,2,2-trifluoro-acetyl)-2,3,4,5-tetrahydro-1H-3-benzazepin-7-yl]-ethyl}-1H-pyridin-2-one]  51 nM

Target: T1, MCH-1R
Assay: not given
Set-up: host or cells: whole animals (in vivo)
Conditions: animals treated with the antagonist; cited from earlier work

In the case of COCC1=C(C(=O)OC)[C@H](c2ccc(F)c(F)c2)N(C(=O)NCCCN2CCC(c3cccc(NC(C)=O)c3)CC2)C(=O)N1 [SNAP-7941], the “body weight effect in long term trials” value is listed as “lose significant amounts of weight”.
